Consider 15 molecules from patent US20260042762A1 (Kymera Therapeutics, Inc., priority 2018, published 2026).

Where a name gives a salt, the structure may show the parent alone.

For one assay, the target named is T1, MerTK (Homo sapiens, UniProt Q12866).
T1 construct: endogenous in cells; host or cells: Jurkat cells
T1 sequence (Q12866 21-999): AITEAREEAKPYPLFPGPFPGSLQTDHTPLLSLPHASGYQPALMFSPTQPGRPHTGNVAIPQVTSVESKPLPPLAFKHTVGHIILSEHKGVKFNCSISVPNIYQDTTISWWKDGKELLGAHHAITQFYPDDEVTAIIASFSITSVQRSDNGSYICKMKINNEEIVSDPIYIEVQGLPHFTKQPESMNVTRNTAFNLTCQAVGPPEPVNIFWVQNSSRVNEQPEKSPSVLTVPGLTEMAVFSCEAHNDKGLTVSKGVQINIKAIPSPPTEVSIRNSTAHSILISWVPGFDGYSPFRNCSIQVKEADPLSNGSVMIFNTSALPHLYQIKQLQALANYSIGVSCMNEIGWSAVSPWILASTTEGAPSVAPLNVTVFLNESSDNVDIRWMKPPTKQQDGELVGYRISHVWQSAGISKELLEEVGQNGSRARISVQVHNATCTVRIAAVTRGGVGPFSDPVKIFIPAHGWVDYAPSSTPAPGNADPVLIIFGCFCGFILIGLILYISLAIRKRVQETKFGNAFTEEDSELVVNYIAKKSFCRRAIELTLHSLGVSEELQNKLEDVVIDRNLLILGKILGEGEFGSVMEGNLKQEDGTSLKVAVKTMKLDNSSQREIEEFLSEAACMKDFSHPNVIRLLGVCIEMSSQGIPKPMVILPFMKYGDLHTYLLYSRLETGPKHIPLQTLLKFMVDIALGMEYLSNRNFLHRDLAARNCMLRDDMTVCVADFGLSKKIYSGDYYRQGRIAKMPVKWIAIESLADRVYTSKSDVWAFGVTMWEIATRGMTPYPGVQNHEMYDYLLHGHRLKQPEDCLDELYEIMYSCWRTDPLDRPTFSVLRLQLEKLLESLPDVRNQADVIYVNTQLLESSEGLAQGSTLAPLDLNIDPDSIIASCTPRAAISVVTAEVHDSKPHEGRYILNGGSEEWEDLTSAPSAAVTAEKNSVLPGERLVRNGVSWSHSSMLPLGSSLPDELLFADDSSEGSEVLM
Kind of assay: MerTk degradation in Jurkat cells (Western blot). In kind it is cell-based. As to conditions: 0.001-1 μM, 4 hour-incubation at 37° C. In short, it runs like this: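 MerTK degradation was read by near-infrared Western blot, normalized to actin, in BCA-quantified lysates of Jurkat cells exposed to 0.001-1 μM compound for 4 h at 37 °C.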
In general terms: Immunoblotting shows a protein as a band on a membrane.
For `Cn1c(=O)n(C2CCC(=O)NC2=O)c2ccc(CCCOCCN3CCCC(N4CCN(Cc5ccc(-c6cn([C@H]7CC[C@H](O)CC7)c7nc(NCCC(F)(F)F)ncc67)cc5)CC4)C3)cc21.O=CO` (stereo partly drawn) [I-95, 3-(3-methyl-2-oxo-5-[3-[2-(3-[4-[(4-[7-[trans-4-hydroxycyclohexyl]-2-[(3,3,3-trifluoropropyl)amino]-7H-pyrrolo[2,3-d]pyrimidin-5-yl]phenyl)methyl]piperazin-1-yl]piperidin-1-yl)ethoxy]propyl]-2,3-dihydro-1H-1,3-benzodiazol-1-y1)piperidine-2,6-dione; formic acid], the “Jurkat Max % MerTK Degradation” value is “A (maximum MerTK degradation greater than 50%)”.

Still in this assay, the particulars now being: Jurkat, 4 h, 0.001-1 μM, 4 hour-incubation at 37° C., read-out: Jurkat Max % MerTK Degradation.
Consider `CCCCNc1ncc2c(C3=CCN(CCOCCOCCOCCOCCCc4ccc5c(c4)n(C)c(=O)n5[C@H]4CCC(=O)NC4=O)CC3)cn([C@H]3CC[C@H](O)CC3)c2n1` [I-96, 3-[5-(1-[4-[2-(butylamino)-7-[trans-4-hydroxycyclohexyl]-7H-pyrrolo[2,3-d]pyrimidin-5-y1]-1,2,3,6-tetrahydropyridin-1-y1]-3,6,9,12-tetraoxapentadecan-15-yl)-3-methyl-2-oxo-2,3-dihydro-1H-1,3-benzodiazol-1-yl]piperidine-2,6-dione; formic acid], for which the Dmax was above 50%.

For the molecule `CCCCNc1ncc2c(C3CCN(CCOCCOCCOCCOCCCc4ccc5c(c4)n(C)c(=O)n5[C@H]4CCC(=O)NC4=O)CC3)cn([C@H]3CC[C@H](O)CC3)c2n1` [I-97, 3-[5-(1-[4-[2-(butylamino)-7-[trans-4-hydroxycyclohexyl]-7H-pyrrolo[2,3-d]pyrimidin-5-y1]piperidin-1-y1]-3,6,9,12-tetraoxapentadecan-15-y1)-3-methyl-2-oxo-2,3-dihydro-1H-1,3-benzodiazol-1-y1]piperidine-2,6-dione; bis(formic acid)], the Dmax is above 50%.

For the molecule `Cn1c(=O)n(C2CCC(=O)NC2=O)c2ccc(CN3CCC(OCCN4CCN(Cc5ccc(-c6cn([C@H]7CC[C@H](O)CC7)c7nc(NCCC(F)(F)F)ncc67)cc5)CC4)C3)cc21` (stereo partly drawn) [I-98, 3-(3-methyl-2-oxo-5-[[3-(2-[4-[(4-[7-[trans-4-hydroxycyclohexy1]-2-[(3,3,3-trifluoropropyl)amino]-7H-pyrrolo[2,3-d]pyrimidin-5-y1]phenyl)methyl]piperazin-1-yl]ethoxy)pyrrolidin-1-y1]methyl]-2,3-dihydro-1H-1,3-benzodiazol-1-yl)piperidine-2,6-dione; formic acid], the Dmax is above 50%.

For `O=C1CC[C@H](n2c3ccc(NCCOCCOCCNCc4ccc(-c5cn([C@H]6CC[C@H](O)CC6)c6nc(NCCC(F)(F)F)ncc56)cc4)cc3c3cccnc32)C(=O)N1` [I-99, 3-[6-[11-(4-[7-[trans-4-hydroxycyclohexyl]-2-[(3,3,3-trifluoropropyl)amino]-7H-pyrrolo[2,3-d]pyrimidin-5-yl]phenyl)-4,7-dioxa-1,10-diazaundecan-1-y1]-9H-pyrido[2,3-b]indol-9-yl]piperidine-2,6-dione; trihydrochloride], the Dmax was above 50%.

`Cn1c(=O)n([C@H]2CCC(=O)NC2=O)c2ccc(CCCOCCCN3CCN(Cc4ccc(-c5cn([C@H]6CC[C@H](O)CC6)c6nc(NCC(F)F)ncc56)cc4)CC3)cc21` [I-100, 3-[5-[3-(3-[4-[(4-[2-[(2,2-difluoroethyl)amino]-7-[trans-4-hydroxycyclohexyl]-7H-pyrrolo[2,3-d]pyrimidin-5-yl]phenyl)methyl]piperazin-1-yl]propoxy)propyl]-3-methyl-2-oxo-2,3-dihydro-1H-1,3-benzodiazol-1-yl]piperidine-2,6-dione; formic acid]: the Dmax is above 50%.

On to `C[C@H](c1ccc(-c2cn([C@H]3CC[C@H](O)CC3)c3nc(NCCC(F)(F)F)ncc23)cc1)N1CCN(CCCOCCCc2ccc3c(c2)n(C)c(=O)n3C2CCC(=O)NC2=O)CC1` (stereo partly drawn) [I-101], for which the Dmax was above 50%.

For `C[C@@H](c1ccc(-c2cn([C@H]3CC[C@H](O)CC3)c3nc(NCCC(F)(F)F)ncc23)cc1)N1CCN(CCCOCCCc2ccc3c(c2)n(C)c(=O)n3C2CCC(=O)NC2=O)CC1` (stereo partly drawn) [I-102, 3-[3-methyl-2-oxo-5-[3-(3-[4-[(1S)-1-(4-[7-[trans-4-hydroxycyclohexy1]-2-[(3,3,3-trifluoropropyl)amino]-7H-pyrrolo[2,3-d]pyrimidin-5-yl]phenyl)ethyl]piperazin-1-yl]propoxy)propyl]-2,3-dihydro-1H-1,3-benzodiazol-1-yl]piperidine-2,6-dione; formic acid], the Dmax was above 50%.

Take `CCCCNc1ncc2c(-c3ccc([C@@H](C)N4CCN(CCCOCCCc5ccc6c(c5)n(C)c(=O)n6C5CCC(=O)NC5=O)CC4)cc3)cn([C@H]3CC[C@H](O)CC3)c2n1` (stereo partly drawn) [I-103, 3-[5-[3-(3-[4-[(1R)-1-[4-[2-(butylamino)-7-[trans-4-hydroxycyclohexyl]-7H-pyrrolo[2,3-d]pyrimidin-5-yl]phenyl]ethyl]piperazin-1-yl]propoxy)propyl]-3-methyl-2-oxo-2,3-dihydro-1H-1,3-benzodiazol-1-yl]piperidine-2,6-dione]: the Dmax was above 50%.

Consider `CCCCNc1ncc2c(-c3ccc([C@H](C)N4CCN(CCCOCCCc5ccc6c(c5)n(C)c(=O)n6C5CCC(=O)NC5=O)CC4)cc3)cn([C@H]3CC[C@H](O)CC3)c2n1` (stereo partly drawn) [I-104, 3-[5-[3-(3-[4-[(1S)-1-[4-[2-(butylamino)-7-[trans-4-hydroxycyclohexyl]-7H-pyrrolo[2,3-d]pyrimidin-5-yl]phenyl]ethyl]piperazin-1-yl]propoxy)propyl]-3-methyl-2-oxo-2,3-dihydro-1H-1,3-benzodiazol-1-y1]piperidine-2,6-dione], for which the Dmax is above 50%.

For the molecule `CN1C(=O)CC[C@H](n2c(=O)n(C)c3cc(CCCOCCOCCN4CCN(Cc5ccc(-c6cn([C@H]7CC[C@H](O)CC7)c7nc(NCCC(F)(F)F)ncc67)cc5)CC4)ccc32)C1=O` [I-105, 1-methyl-3-(3-methyl-2-oxo-5-[3-[2-(2-[4-[(4-[7-[trans-4-hydroxycyclohexyl]-2-[(3,3,3-trifluoropropyl)amino]-7H-pyrrolo[2,3-d]pyrimidin-5-yl]phenyl)methyl]piperazin-1-yl]ethoxy)ethoxy]propyl]-2,3-dihydro-1H-1,3-benzodiazol-1-yl)piperidine-2,6-dione], the Dmax lay within 20 to 50%.

Take `C[C@H]1CN(Cc2ccc(-c3cn([C@H]4CC[C@H](O)CC4)c4nc(NCCC(F)(F)F)ncc34)cc2)CCN1CCCOCCCc1ccc2c(c1)n(C)c(=O)n2C1CCC(=O)NC1=O` (stereo partly drawn) [I-106, 3-[3-methyl-5-(3-[3-[(2S)-2-methyl-4-[(4-[7-[trans-4-hydroxycyclohexy1]-2-[(3,3,3-trifluoropropyl)amino]-7H-pyrrolo[2,3-d]pyrimidin-5-yl]phenyl)methyl]piperazin-1-yl]propoxy]propyl)-2-oxo-2,3-dihydro-1H-1,3-benzodiazol-1-yl]piperidine-2,6-dione; formic acid]: the Dmax was above 50%.

Consider `Cn1c(=O)n([C@H]2CCC(=O)NC2=O)c2ccc(CCCOCCCN3CCN(Cc4ccc(-c5cn([C@H]6CC[C@H](O)CC6)c6nc(NC7CC7)ncc56)cc4)CC3)cc21` [I-108, 3-[5-(3-[3-[4-([4-[2-(cyclopropylamino)-7-[trans-4-hydroxycyclohexyl]-7H-pyrrolo[2,3-d]pyrimidin-5-yl]phenyl]methyl)piperazin-1-yl]propoxy]propyl)-3-methyl-2-oxo-2,3-dihydro-1H-1,3-benzodiazol-1-yl]piperidine-2,6-dione; bis(formic acid)], for which the Dmax was above 50%.

With `Cn1c(=O)n([C@H]2CCC(=O)NC2=O)c2ccc(CN3CC(OCCN4CCN(Cc5ccc(-c6cn([C@H]7CC[C@H](O)CC7)c7nc(NCCC(F)(F)F)ncc67)cc5)CC4)C3)cc21` [I-109, 3-(3-methyl-2-oxo-5-[[3-(2-[4-[(4-[7-[trans-4-hydroxycyclohexyl]-2-[(3,3,3-trifluoropropyl)amino]-7H-pyrrolo[2,3-d]pyrimidin-5-y1]phenyl)methyl]piperazin-1-yl]ethoxy)azetidin-1-yl]methyl]-2,3-dihydro-1H-1,3-benzodiazol-1-y1)piperidine-2,6-dione], the Dmax was below 20%.

Turning to `C[C@@H](CC(F)(F)F)Nc1ncc2c(-c3ccc(CN4CCN(CCCOCCCc5ccc6c(c5)n(C)c(=O)n6C5CCC(=O)NC5=O)CC4)cc3)cn([C@H]3CC[C@H](O)CC3)c2n1` (stereo partly drawn) [I-110, 3-[3-methyl-2-oxo-5-[3-(3-[4-[(4-[7-[(1r,4r)-4-hydroxycyclohexyl]-2-[[(2S)-4,4,4-trifluorobutan-2-yl]amino]-7H-pyrrolo[2,3-d]pyrimidin-5-yl]phenyl)methyl]piperazin-1-yl]propoxy)propyl]-2,3-dihydro-1H-1,3-benzodiazol-1-y1]piperidine-2,6-dione], the Dmax is above 50%.
